Consider seven molecules from patent US4945158A, “Antidiabetic phosphonates” (American Cyanamid Company, priority 1988, dated 1990).

Test [1] concerns the target T1, fructose-1,6-bisphosphatase (FBP) (Rattus norvegicus, UniProt P19112).
T1 construct: purified rat liver FBP; from tissue; host or cells: rat liver
T1 sequence (P19112 2-363 limits assumed): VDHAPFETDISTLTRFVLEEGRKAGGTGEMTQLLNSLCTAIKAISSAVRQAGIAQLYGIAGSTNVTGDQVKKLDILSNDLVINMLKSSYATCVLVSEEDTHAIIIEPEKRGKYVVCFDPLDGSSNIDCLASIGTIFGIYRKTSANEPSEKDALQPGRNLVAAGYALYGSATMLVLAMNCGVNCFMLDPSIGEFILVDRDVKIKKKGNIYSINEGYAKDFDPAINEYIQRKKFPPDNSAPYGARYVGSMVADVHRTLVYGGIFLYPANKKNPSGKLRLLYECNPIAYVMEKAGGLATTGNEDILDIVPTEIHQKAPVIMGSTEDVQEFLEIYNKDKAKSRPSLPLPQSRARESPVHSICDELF
Put plainly: FBP inhibition, spectrophotometric assay. Format: biochemical. The settings on record: inhibition of purified rat liver FBP; 0.02 mM fructose-1,6-bisphosphate, pH 7.4, 30° C. The protocol:
(§1) The novel compounds of this invention were tested for their ability to stimulate the enzyme 6-phosphofructo-1-kinase ("PFK") and for their ability to inhibit the enzyme fructose-1,6-bisphosphatase ("FBP") using the procedures described below.
Effects on the activity of FBP were determined using a spectrophotometric assay. The assay mixture contained 100 mM tris(hydroxymethyl)aminomethane,hydrochloride ("TRIS-HCl", pH 7.4); 2.5 mM betamercaptoethanol; 2 mM magnesium chloride; 0.05 mM EDTA; 0.2 mM nicotinamide adenine dinucleotide phosphate ("NADP"); 10 U phosphoglucose isomerase; 5 U glucose-6-phosphatedehydrogenase; 0.02 U of purified rat liver FBP; and various concentrations of the test compound, all in a final volume of 1 ml. The mixture was preincubated for 3 minutes at 30° C. and then the reaction was initiated with 0.02 mM fructose-1,6-bisphosphate. The rate of increase in absorbance at 340 nm was measured at 30° C. with a recording spectrophotometer.

The target in test [2] is T2, 6-phosphofructo-1-kinase (PFK) (Rattus norvegicus, UniProt P30835).
T2 construct: purified rat liver 6-phosphofructo-1-kinase; from tissue; host or cells: rat liver
T2 sequence (P30835 2-780 limits assumed): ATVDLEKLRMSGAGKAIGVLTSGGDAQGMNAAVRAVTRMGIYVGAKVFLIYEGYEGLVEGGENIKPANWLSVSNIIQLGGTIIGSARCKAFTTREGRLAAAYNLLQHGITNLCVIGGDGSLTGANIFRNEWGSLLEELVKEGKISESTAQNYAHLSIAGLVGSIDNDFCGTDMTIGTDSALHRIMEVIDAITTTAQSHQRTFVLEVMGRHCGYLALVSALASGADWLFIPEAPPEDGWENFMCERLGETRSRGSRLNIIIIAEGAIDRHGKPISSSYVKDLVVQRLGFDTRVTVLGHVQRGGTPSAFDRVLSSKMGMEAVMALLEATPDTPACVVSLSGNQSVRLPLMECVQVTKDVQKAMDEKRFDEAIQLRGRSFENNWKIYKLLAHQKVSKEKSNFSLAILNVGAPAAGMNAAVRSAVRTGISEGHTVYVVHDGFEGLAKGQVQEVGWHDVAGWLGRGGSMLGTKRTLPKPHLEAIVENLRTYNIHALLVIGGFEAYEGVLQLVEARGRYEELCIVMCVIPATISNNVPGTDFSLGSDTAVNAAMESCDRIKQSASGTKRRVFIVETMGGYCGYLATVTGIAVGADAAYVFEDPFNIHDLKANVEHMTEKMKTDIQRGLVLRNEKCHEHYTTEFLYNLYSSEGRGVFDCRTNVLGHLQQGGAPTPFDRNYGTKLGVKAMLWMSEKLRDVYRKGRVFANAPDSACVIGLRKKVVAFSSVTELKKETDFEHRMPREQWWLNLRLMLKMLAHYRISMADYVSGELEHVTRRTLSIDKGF
Put plainly: PFK stimulation, aldolase-coupled spectrophotometric assay. Format: biochemical. The settings on record: stimulation of purified rat liver 6-phosphofructo-1-kinase; 0.2 mM fructose-6-phosphate, pH 7.3, 30° C.; read-out: PFK ED50. The protocol: as §1
Effects on the activity of PFK were determined using an aldolase-coupled, spectrophotometric assay. The assay mixture contained: […] N-tris-(hydroxymethyl)-methyl-2-aminoethanesulfonic acid, hydrochloride ("TES-HCl", pH 7.3); 1 mM ethylenediaminetetraacetic acid ("EDTA"); 6 mM magnesium chloride; 2.5 mM dithiothreitol; 0.165 mM nicotinamide adenine dinucleotide ("NADH"); 1 mM adenosine triphosphate ("ATP"); 0.04 U aldolase; 0.4 U triose phosphate isomerase; alpha-glycerolphosphate dehydrogenase (1.5 U/ml); 0.1 U of purified rat liver 6-phosphofructo-1-kinase; and various concentrations of the test compound, all in a final volume of 1 ml. The mixture was preincubated for 3 minutes at 30° C. and then the reaction was initiated with 0.2 mM fructose-6-phosphate. The rate of decrease in absorbance at 340 nm was measured at 30° C. with a recording spectrophotometer.

Take `O=P(O)(O)C[C@@]1(CO)O[C@H](COP(=O)(O)O)[C@@H](O)[C@@H]1O` [2,5-Anhydro-1-deoxy-2-C-(hydroxymethyl)-1-phosphono-D-mannitol, 6-(dihydrogen phosphate)]: in test [1], the 50% inhibitory concentration (IC50) (commonly the concentration that gives 50% inhibition) came out at 393 µM. For the same molecule, the EC50 in test [2] stood at 6 µM.
Taken in the same sequence, the figures for `O=P(O)(O)CC[C@H]1O[C@H](COP(=O)(O)O)[C@@H](O)[C@@H]1O` [3,6-Anhydro-1,2-dideoxy-1-phosphono-D-manno-heptitol, 7-(dihydrogen phosphate)] were 80 µM and 6 µM.
As to `O=P(O)(O)CCC[C@@H]1O[C@H](COP(=O)(O)O)[C@@H](O)[C@@H]1O` [4,7-Anhydro-1,2,3-trideoxy-1-(dihydroxyphosphinyl)-D-gluco-octitol, 8-(dihydrogen phosphate)], the EC50 in test [2] was 12 µM.
For the molecule `O=P(O)(O)C[C@H]1O[C@H](COP(=O)(O)O)[C@@H](O)[C@@H]1O` [2,5-Anhydro-1-deoxy-1-phosphono-D-mannitol, 6-(dihydrogen phosphate)], in test [1], the 50% inhibitory concentration (IC50) was determined as 58 µM. In addition, in test [2], the EC50 is 4 µM.
Taken in the same sequence, the figures for `O=P(O)(O)C[C@@H]1O[C@H](COP(=O)(O)O)[C@@H](O)[C@@H]1O` [2,5-Anhydro-1-deoxy-1-phosphono-D-glucitol, 6-(dihydrogen phosphate)] were 602 µM and 20 µM.
For `O=P(O)(O)CCC[C@H]1O[C@H](COP(=O)(O)O)[C@@H](O)[C@@H]1O` [4,7-anhydro-1,2,3-trideoxy-1-(dihydroxyphosphinyl)-D-manno-octitol, 8-(dihydrogen phosphate)] the same measures were 200 µM and 27 µM.
On to `O=P(O)(O)C[C@]1(CO)O[C@H](COP(=O)(O)O)[C@@H](O)[C@@H]1O` [2,5-Anhydro-1-deoxy-2-C-(hydroxymethyl)-1-phosphono-D-glucitol, 6-(dihydrogen phosphate)], for which the IC50 in test [1] was 240 µM. The EC50 in test [2] was 12 µM.
